Drawing on PubChem BioAssay (NCI), this text covers TGI for seven compounds.

Test systems include K-562 leukemia; BT-549 breast; SF-268 CNS; DU-145 prostate; HCC-2998 colon; SK-OV-3 ovarian; M14 melanoma; TK-10 renal; EKVX NSCLC; HOP-62 NSCLC; SF-295 CNS; KM12 colon; UO-31 renal; HS 578T breast; MDA-MB-231 breast; SK-MEL-5 melanoma; MCF7 breast; SNB-19 CNS; A498 renal.
What all share (experiment): growth of human tumour cells (NCI), 48 h

SMILES strings stand for the structures.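 1) Cells in 96-well plates. 2) Compound, 48 h, 5 concentrations. 3) Linear interpolation between surrounding doses. 4) Unreached endpoint = highest concentration. TGI is the concentration that stops growth completely.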

Take `Cc1cc(N(CCC#N)CCC#N)ccc1/C(N=Nc1ccc(Cl)cc1)=N\NC(=O)c1cc(Cl)ccc1O`: the TGI is over 100 µM in the test on K-562 leukemia; over 100 µM with BT-549 breast; 86.2 µM with SF-268 CNS; over 100 µM in the test with DU-145 prostate; over 100 µM in the test on HCC-2998 colon; 97.9 µM with SK-OV-3 ovarian. Further, the TGI in the test on M14 melanoma is over 100 µM; in the test with TK-10 renal it was over 100 µM; with EKVX NSCLC, over 100 µM; in the test with HOP-62 NSCLC, 56.6 µM; in the test with SF-295 CNS, 91.4 µM; in the test on KM12 colon, over 100 µM. For the same compound, the TGI is over 100 µM with UO-31 renal; 56.2 µM in the test on HS 578T breast; over 100 µM in the test on MDA-MB-231 breast; over 100 µM in the test with SK-MEL-5 melanoma; over 100 µM with MCF7 breast; 75.4 µM in the test on SNB-19 CNS. In the test with A498 renal, the TGI was over 100 µM.
For the compound `Cc1ccc(C2=Nc3cc(C)c(Cl)cc3S(=O)(=O)NN2)cc1`, the TGI in the test on K-562 leukemia, in the test with BT-549 breast, in the test on SF-268 CNS, in the test with DU-145 prostate, in the test on HCC-2998 colon and in the test on SK-OV-3 ovarian was over 100 µM in each case. Also, the TGI in the test with M14 melanoma, with TK-10 renal, with EKVX NSCLC, in the test on HOP-62 NSCLC, with SF-295 CNS and in the test on KM12 colon was over 100 µM throughout. Also, the TGI with UO-31 renal, with HS 578T breast, with MDA-MB-231 breast, with SK-MEL-5 melanoma, in the test on MCF7 breast and in the test on SNB-19 CNS was over 100 µM each time. In the test with A498 renal, the TGI is over 100 µM.
In the case of `C=CCN1CCC(OC(=O)C(O)(C#CC)C2CCCC2)CC1` (stereo not drawn), the TGI in the test on K-562 leukemia, with BT-549 breast, in the test on SF-268 CNS, in the test on DU-145 prostate, with HCC-2998 colon and in the test on SK-OV-3 ovarian was over 100 µM in each case. In addition, the TGI in the test on M14 melanoma, in the test with TK-10 renal, with EKVX NSCLC, in the test with HOP-62 NSCLC, in the test with SF-295 CNS and with KM12 colon was over 100 µM each time. In addition, the TGI with UO-31 renal, in the test on HS 578T breast, in the test on MDA-MB-231 breast, in the test with SK-MEL-5 melanoma, with MCF7 breast and with SNB-19 CNS was over 100 µM in each case. The same compound came in with a TGI in the test with A498 renal of over 100 µM.
For the compound `O=C(/C=C1\N=C(c2ccccc2)N(c2nc3ccc(Sc4ccccc4)cc3[nH]2)C1=O)/C=C/c1ccccc1`, the TGI in the test on K-562 leukemia was over 100 µM; in the test with BT-549 breast it was over 100 µM; in the test with SF-268 CNS it was over 100 µM; in the test with DU-145 prostate, over 100 µM; in the test on HCC-2998 colon, 32.5 µM; in the test on SK-OV-3 ovarian, over 100 µM. In addition, the TGI is over 100 µM with M14 melanoma; 98.2 µM in the test with TK-10 renal; over 100 µM in the test with EKVX NSCLC; over 100 µM in the test with HOP-62 NSCLC; over 100 µM in the test with SF-295 CNS; over 100 µM with KM12 colon. Also, the TGI in the test on UO-31 renal was over 100 µM; in the test with HS 578T breast, over 100 µM; with MDA-MB-231 breast it was 53.8 µM; in the test with SK-MEL-5 melanoma, 61.3 µM; in the test on MCF7 breast, over 100 µM; with SNB-19 CNS it was over 100 µM. In the test with A498 renal, this compound came in with a TGI of over 100 µM.
As for `CC(=N\N)/C(C)=N/N=C(C)/C(C)=N/N=C(C)/C(C)=N/N=C(C)/C(C)=N/N`, the TGI in the test on K-562 leukemia, in the test on BT-549 breast, in the test on SF-268 CNS, in the test with DU-145 prostate, with HCC-2998 colon and in the test on SK-OV-3 ovarian was over 100 µM in each case. Further, the TGI in the test on M14 melanoma, with TK-10 renal, in the test with EKVX NSCLC, in the test on HOP-62 NSCLC, in the test with SF-295 CNS and with KM12 colon was over 100 µM in each case. The TGI in the test with UO-31 renal, in the test with HS 578T breast, with MDA-MB-231 breast, with SK-MEL-5 melanoma, in the test on MCF7 breast and with SNB-19 CNS was over 100 µM in each case. The TGI in the test on A498 renal was over 100 µM.
With `O=C(Nn1c(-c2ccccc2)nc2ccccc2c1=O)c1ccc(CS)cc1`, the TGI in the test with K-562 leukemia was over 100 µM; in the test on BT-549 breast, 52.8 µM; in the test on SF-268 CNS it was over 100 µM; with DU-145 prostate it was over 100 µM; in the test with HCC-2998 colon it was over 100 µM; in the test on SK-OV-3 ovarian, over 100 µM. In addition, the TGI in the test with M14 melanoma, in the test with TK-10 renal, in the test with EKVX NSCLC, with HOP-62 NSCLC, in the test on SF-295 CNS and in the test on KM12 colon was over 100 µM each time. The TGI is over 100 µM with UO-31 renal; over 100 µM in the test on HS 578T breast; 96.1 µM in the test on MDA-MB-231 breast; over 100 µM with SK-MEL-5 melanoma; over 100 µM in the test with MCF7 breast; over 100 µM with SNB-19 CNS. Also, the TGI with A498 renal was 99.8 µM.
`NNC(=O)CSc1nc2ccc(I)cc2c(=O)n1Cc1ccccc1`: the TGI with K-562 leukemia was 88 µM; with BT-549 breast, 42.6 µM; in the test on SF-268 CNS, 41.3 µM; in the test on DU-145 prostate it was over 100 µM; in the test with HCC-2998 colon, 55.6 µM; in the test on SK-OV-3 ovarian, 32.7 µM. Besides, the TGI with M14 melanoma amounted to 40.4 µM; with TK-10 renal, 38.7 µM; in the test on EKVX NSCLC, 33.2 µM; with HOP-62 NSCLC, 43.9 µM; with SF-295 CNS, 53.7 µM; with KM12 colon, 58.7 µM. The TGI in the test on UO-31 renal came out at 35.4 µM; in the test on HS 578T breast, 52.5 µM; in the test on MDA-MB-231 breast it was 34.1 µM; in the test with SK-MEL-5 melanoma, 38.5 µM; with MCF7 breast it was 59.4 µM; with SNB-19 CNS it was 54.8 µM. In the test with A498 renal, this compound had a TGI of 33.2 µM.
